Laboratory results: ChEMBL document CHEMBL1134300, “Oxindole-based inhibitors of cyclin-dependent kinase 2 (CDK2): design, synthesis, enzymatic activities, and X-ray crystallographic analysis” (J Med Chem, 2001)

Key:
[1] = target: Cyclin-dependent kinase 2 (Homo sapiens, UniProt P24941)
Description: Inhibitory activity against human cyclin-dependent kinase 2 (CDK2)

[2] = target: Cyclin-dependent kinase 1 (Homo sapiens, UniProt P06493)
Sequence of Cyclin-dependent kinase 1 (P06493 whole entry): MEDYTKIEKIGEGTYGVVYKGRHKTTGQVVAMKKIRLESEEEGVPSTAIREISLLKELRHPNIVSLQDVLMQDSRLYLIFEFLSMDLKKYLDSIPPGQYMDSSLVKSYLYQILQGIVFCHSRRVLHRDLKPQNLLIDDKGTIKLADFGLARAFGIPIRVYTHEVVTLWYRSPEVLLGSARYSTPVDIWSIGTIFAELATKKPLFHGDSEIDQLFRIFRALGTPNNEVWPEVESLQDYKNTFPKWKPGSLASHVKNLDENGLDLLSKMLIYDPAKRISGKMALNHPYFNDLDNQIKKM
Description: Inhibitory activity against human cyclin-dependent kinase 1 (CDK1)

Row | SMILES | IC50 [1] [nM] | IC50 [2] [nM]
1 | CCc1ccc2c(c1)NC(=O)C2=NNc1ccc(S(N)(=O)=O)cc1 | 21 | 660
2 | NS(=O)(=O)c1ccc(N/C=C2\C(=O)Nc3cc(CO)ccc32)cc1 | 61 | 740
3 | NS(=O)(=O)c1ccc(NN=C2C(=O)Nc3ccc(S(=O)(=O)O)cc32)cc1 | 15 | 130
4 | CC(=O)NS(=O)(=O)c1ccc(N/C=C2\C(=O)Nc3ccc4ncsc4c32)cc1 | 75 | 910
5 | O=C1Nc2ccc3ncsc3c2/C1=C/Nc1ccc(S(=O)(=O)NCCc2c[nH]cn2)cc1 | 3.6 | 38
6 | NS(=O)(=O)c1ccc(N/N=C2\C(=O)Nc3ccc4ncccc4c32)cc1 [GW305178X] | 1.6 | 12
7 | CC(C)CC(=O)c1ccc2c(c1)/C(=C/Nc1ccc(S(N)(=O)=O)cc1)C(=O)N2 | 1.9 | 16
8 | NC(=O)c1cccc2c1C(=NNc1ccc(S(N)(=O)=O)cc1)C(=O)N2 | > 1000 | > 1000
9 | COCCOCCOCCOCCN(C)S(=O)(=O)c1ccc(N/C=C2\C(=O)Nc3ccc4ncsc4c32)cc1 | 1 | 45
10 | CC(C)c1cccc2c1C(=NNc1ccc(S(N)(=O)=O)cc1)C(=O)N2 | 2.5 | 37
11 | NS(=O)(=O)c1ccc(NN=C2C(=O)Nc3ccc4[nH]nc(Cl)c4c32)cc1 | 2.2 | 83
12 | Cc1cccc2c1NC(=O)/C2=C\Nc1ccc(S(N)(=O)=O)cc1 | > 10000 | > 10000
13 | CC(C)COC(=O)c1ccc2c(c1)/C(=C/Nc1ccc(S(N)(=O)=O)cc1)C(=O)N2 [GW416981X] | 3 | 19
14 | CC(C)(CO)CNC(=O)c1ccc2c(c1)C(=NNc1ccc(S(N)(=O)=O)cc1)C(=O)N2 [GW301784X] | 6.8 | 60
15 | CNS(=O)(=O)Cc1ccc(N/C=C2\C(=O)Nc3ccc4ncsc4c32)cc1 | 26 | 170
16 | NS(=O)(=O)c1ccc(NN=C2C(=O)Nc3ccc(O)cc32)cc1 | 10 | 77
17 | NS(=O)(=O)c1ccc(N/C=C2\C(=O)Nc3ccccc32)cc1 | 690 | 3000
18 | Nc1ccc2c(c1)C(=NNc1ccc(S(N)(=O)=O)cc1)C(=O)N2 | 74 | 1400
19 | NS(=O)(=O)c1ccc(NN=C2C(=O)Nc3cccc(CCc4ccncc4)c32)cc1 | 21 | 290
20 | NS(=O)(=O)Cc1ccc(N/C=C2\C(=O)Nc3ccc4ncsc4c32)cc1 | 7.5 | 100
21 | COc1ccc2c(c1Cl)C(=NNc1ccc(S(N)(=O)=O)cc1)C(=O)N2 | 54 | 1700

Row | SMILES | IC50 [1] [nM] | IC50 [2] [nM]
22 | Cc1cccc(C)c1NS(=O)(=O)c1ccc(N/C=C2\C(=O)Nc3ccc4ncsc4c32)cc1 | 281 | 14000
23 | NS(=O)(=O)c1ccc(N/C=C2\C(=O)Nc3ccc(C(=O)O)cc32)cc1 | 28 | 150
24 | CC(C)Oc1cccc2c1C(=NNc1ccc(S(N)(=O)=O)cc1)C(=O)N2 | 3.4 | 41
25 | CN(c1ccccn1)S(=O)(=O)c1ccc(N/C=C2\C(=O)Nc3ccc4ncsc4c32)cc1 | 5.6 | 64
26 | N=C(N)NS(=O)(=O)c1ccc(N/C=C2\C(=O)Nc3ccc4ncsc4c32)cc1 | 3.3 | 45
27 | NS(=O)(=O)c1ccc(NC=C2C(=O)Nc3ccc4ncsc4c32)cc1 [GW589933X] | 2.8 | 29
28 | O=C1Nc2ccc3ncsc3c2/C1=C/Nc1ccc(S(=O)(=O)Nc2ccccn2)cc1 |  | 100
29 | O=C1Nc2ccc3ncsc3c2/C1=C/Nc1ccc(S(=O)(=O)NCCOCCO)cc1 | 0.54 | 12
30 | CCOC(=O)c1cccc2c1/C(=C/Nc1ccc(S(N)(=O)=O)cc1)C(=O)N2 | 8.9 | 130
31 | COc1ccc2c(c1)C(=NNc1ccc(S(N)(=O)=O)cc1)C(=O)N2 | 12 | 210
32 | CNS(=O)(=O)c1ccc(N/C=C2\C(=O)Nc3ccccc32)cc1 |  | 2900
33 | CC(C)(C)c1ccc2c(c1)NC(=O)/C2=N\Nc1ccc(S(N)(=O)=O)cc1 | > 10000 | > 10000
34 | NS(=O)(=O)c1ccc(N/N=C2\C(=O)Nc3ccc(-c4cnco4)cc32)cc1 [GW276655X] | 2.3 | 10
35 | NS(=O)(=O)c1ccc(NN=C2C(=O)Nc3ccc(I)cc32)cc1 | 11 | 95
36 | CNS(=O)(=O)c1ccc(N/C=C2\C(=O)Nc3ccc4ncsc4c32)cc1 | 5.6 | 64
37 | NS(=O)(=O)c1ccc(NN=C2C(=O)Nc3cccc([N+](=O)[O-])c32)cc1 | 2400 | > 1000
38 | NS(=O)(=O)c1ccc(N/C=C2\C(=O)Nc3ccc4ncccc4c32)cc1 | 1.5 | 15
39 | CC(C)=Cc1cccc2c1C(=NNc1ccc(S(N)(=O)=O)cc1)C(=O)N2 [GW396574X] | 1.5 | 15
40 | CS(=O)(=O)c1ccc2c(c1)C(=NNc1ccc(S(N)(=O)=O)cc1)C(=O)N2 | 16 | 350
41 | C/C(Nc1ccc(S(N)(=O)=O)cc1)=C1/C(=O)Nc2ccc(Cl)cc21 | 22 | 220
42 | CC(C)Cc1cccc2c1C(=NNc1ccc(S(N)(=O)=O)cc1)C(=O)N2 | 1.2 | 19

Row | SMILES | IC50 [1] [nM] | IC50 [2] [nM]
43 | NS(=O)(=O)c1ccc(NN=C2C(=O)Nc3cc(Br)ccc32)cc1 | 43 | 520
44 | CCOc1cccc2c1C(=NNc1ccc(S(N)(=O)=O)cc1)C(=O)N2 | 93 | 550
45 | NS(=O)(=O)c1ccc(NN=C2C(=O)Nc3ccc([N+](=O)[O-])cc32)cc1 | 15 | 710
46 | CN(C)C(=O)c1ccc2c(c1)C(=NNc1ccc(S(N)(=O)=O)cc1)C(=O)N2 | 17 | 130
47 | CN(C)S(=O)(=O)c1ccc(N/C=C2\C(=O)Nc3ccc4ncsc4c32)cc1 | 4.6 | 50
48 | Cc1cc(C)c2c(c1)/C(=C/Nc1ccc(S(N)(=O)=O)cc1)C(=O)N2 | > 10000 | > 10000
49 | CC(C)c1ccc2c(c1)NC(=O)/C2=N/Nc1ccc(S(N)(=O)=O)cc1 [GW300653X] | 75 | 790
50 | NS(=O)(=O)c1ccc(N/N=C2\C(=O)Nc3ccc(Cl)cc32)cc1 [GW280670X] | 43 | 300
51 | Cc1ccc2c(c1)C(=NNc1ccc(S(N)(=O)=O)cc1)C(=O)N2 [GW275944X] | 46 | 330
52 | NS(=O)(=O)c1ccc(NN=C2C(=O)Nc3cccc(-c4cc[nH]n4)c32)cc1 | 19 | 250
53 | CCc1cccc2c1C(=NNc1ccc(S(N)(=O)=O)cc1)C(=O)N2 | 7.9 | 46
54 | CS(=O)(=O)Cc1ccc(N/C=C2\C(=O)Nc3ccc4ncsc4c32)cc1 | 50 | 1200
55 | NS(=O)(=O)c1ccc(N/C=C2\C(=O)Nc3ccc(-c4cnco4)cc32)cc1 | 2.5 | 17
56 | NS(=O)(=O)c1ccc(NN=C2C(=O)Nc3ccc(C(=O)NCc4ccncc4)cc32)cc1 [GW300657X] | 8.9 | 74
57 | COc1cccc(OC)c1CNC(=O)c1ccc2c(c1)C(=NNc1ccc(S(N)(=O)=O)cc1)C(=O)N2 | 1.7 | 9.3
58 | NS(=O)(=O)c1ccc(NN=C2C(=O)Nc3ccc(S(N)(=O)=O)cc32)cc1 | 43 | 170
59 | CNS(=O)(=O)Cc1ccc(NN=C2C(=O)Nc3ccc4ncsc4c32)cc1 |  | 56
60 | NS(=O)(=O)c1ccc(NN=C2C(=O)Nc3ccc(C(=O)NCc4cccnc4)cc32)cc1 | 2.1 | 51
61 | NC(=O)c1ccc2c(c1)C(=NNc1ccc(S(N)(=O)=O)cc1)C(=O)N2 | 4.5 | 2.8
62 | C/C(Nc1ccc(S(N)(=O)=O)cc1)=C1/C(=O)Nc2ccccc21 [GW335962X] | 360 | 2300
63 | Cc1ccc2c(c1Cl)C(=NNc1ccc(S(N)(=O)=O)cc1)C(=O)N2 | 13 | 250

Row | SMILES | IC50 [1] [nM] | IC50 [2] [nM]
64 | NS(=O)(=O)c1ccc(NN=C2C(=O)Nc3cccc(Oc4ccccc4)c32)cc1 | 13 | 290
65 | O=C1Nc2ccc3ncsc3c2/C1=C/Nc1ccc(CS(=O)(=O)NCCO)cc1 | 13 | 200
66 | NS(=O)(=O)c1ccc(N/N=C2\C(=O)Nc3cccc(/C=C/c4ccc(O)cc4)c32)cc1 |  | 170
67 | O=C1Nc2ccc3ncsc3c2/C1=C/Nc1ccc(S(=O)(=O)NCCO)cc1 | 4.7 | 41
68 | NS(=O)(=O)c1ccc(NN=C2C(=O)Nc3ccc(F)cc32)cc1 | 34 | 290
69 | NS(=O)(=O)c1ccc(NN=C2C(=O)Nc3ccc4[nH]ncc4c32)cc1 | 13 | 120
70 | COCCOCCOCCOCCNS(=O)(=O)c1ccc(N/C=C2\C(=O)Nc3ccc4ncsc4c32)cc1 | 4.5 | 72
71 | O=C1Nc2ccc(-c3cnco3)cc2/C1=C/Nc1ccc2c(c1)CS(=O)(=O)C2 | 8.9 | 19
72 | CN(C)c1ccc2c(c1)/C(=C/Nc1ccc(S(N)(=O)=O)cc1)C(=O)N2 [GW416469X] | 310 | 2800
73 | COC(=O)c1ccc2c(c1)/C(=C/Nc1ccc(S(N)(=O)=O)cc1)C(=O)N2 | 2.1 | 12
74 | NS(=O)(=O)c1ccc(/N=N/c2c(O)[nH]c3cccc(I)c23)cc1 | 4.6 | 110
75 | NS(=O)(=O)c1ccc(N/C=C2\C(=O)Nc3cccc(CO)c32)cc1 | 54 | 1700
76 | Cc1cc(Cl)cc2c1NC(=O)/C2=C\Nc1ccc(S(N)(=O)=O)cc1 | > 10000 | > 10000
77 | CN(C)CCNS(=O)(=O)c1ccc(N/C=C2\C(=O)Nc3ccccc32)cc1 | 1000 | 5500
78 | O=C1Nc2ccc3ncsc3c2/C1=C/Nc1ccc(S(=O)(=O)NCc2ccccc2)cc1 | 5.6 | 52
79 | Cc1c([N+](=O)[O-])ccc2c1C(=NNc1ccc(S(N)(=O)=O)cc1)C(=O)N2 | 4.6 | 87
80 | O=C1Nc2ccc3ncsc3c2/C1=C/Nc1ccc(S(=O)(=O)N[n+]2ccc3ccccc3c2)cc1 |  | 42
81 | O=C1Nc2ccccc2/C1=C/Nc1ccc(S(=O)(=O)Nc2nccs2)cc1 |  | 3800
